{"source": "patent US9486507B2", "about": "“Pro-coagulant compounds and methods of use thereof” (priority 2011, dated 2016)", "key": {"FIXa": {"biological_target": "FIXa (Homo sapiens, UniProt P00740)", "sequence (P00740 47-191 limits assumed)": "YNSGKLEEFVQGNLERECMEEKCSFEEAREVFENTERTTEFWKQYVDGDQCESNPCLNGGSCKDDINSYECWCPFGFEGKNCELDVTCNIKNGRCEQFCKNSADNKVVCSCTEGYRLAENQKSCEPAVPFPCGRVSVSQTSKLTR", "sequence (P00740 227-461 limits assumed)": "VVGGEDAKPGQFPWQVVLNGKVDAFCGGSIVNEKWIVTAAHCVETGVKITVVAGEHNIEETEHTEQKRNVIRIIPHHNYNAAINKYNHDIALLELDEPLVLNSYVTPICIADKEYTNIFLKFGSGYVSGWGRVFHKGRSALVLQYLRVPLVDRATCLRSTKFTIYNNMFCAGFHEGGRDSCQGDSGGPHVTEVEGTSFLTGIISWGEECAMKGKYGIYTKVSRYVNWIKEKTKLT", "test": "FXa generation assay with human FIXa", "type": "biochemical", "set-up": "purchased Haematologic Technologies", "conditions": "FXa generation assay, 10 nM hFIXa, 100 nM hFX; class symbols"}, "[1]": {"system": "FVIII deficient human plasma", "test": "Thrombin generation assay (TGA) in FVIII-deficient plasma", "type": "biochemical"}, "[2]": {"conditions": "Precision Biologics FVIII-deficient plasma (2), first Baseline (2) series, 2.5 μM"}, "[3]": {"conditions": "Precision Biologics FVIII-deficient plasma (2), first Baseline (2) series, 5 μM"}, "[4]": {"conditions": "Precision Biologics FVIII-deficient plasma (2), first Baseline (2) series, 10 μM"}, "[5]": {"conditions": "Precision Biologics FVIII-deficient plasma (2), second Baseline (2) series, 2.5 μM"}, "[6]": {"conditions": "Precision Biologics FVIII-deficient plasma (2), second Baseline (2) series, 5 μM"}, "[7]": {"conditions": "Precision Biologics FVIII-deficient plasma (2), second Baseline (2) series, 10 μM"}, "[8]": {"conditions": "Precision Biologics FVIII-deficient plasma (2), second Baseline (2) series, 20 μM"}}, "note": "Square brackets hold non-standard residues; d marks the D form. Ends that are not written are not given here.", "data": [{"substance": "PRIRSVGPGSRSASGKLTCLASYCWLFWTGIA", "values": [{"measurement": "Vmax", "setting": "FIXa", "result": "(++++) ((++++)>3)"}, {"measurement": "Thrombin Above Baseline (nM)", "setting": "[1]; [2]", "result": "++ (11-20 nM (1) or 30-59 nM (2) (++))"}, {"measurement": "Thrombin Above Baseline (nM)", "setting": "[1]; [3]", "result": "+++ (21-30 nM (1) or 60-90 nM (2) (+++))"}, {"measurement": "Thrombin Above Baseline (nM)", "setting": "[1]; [4]", "result": "+++ (21-30 nM (1) or 60-90 nM (2) (+++))"}]}, {"substance": "PRIRTSGPGSRSASGKLTCLASYCWLFWTGIA", "values": [{"measurement": "Vmax", "setting": "FIXa", "result": "(++++) ((++++)>3)"}, {"measurement": "Thrombin Above Baseline (nM)", "setting": "[1]; [2]", "result": "+ (1-10 nM (1) or 1-29 nM (2) (+))"}, {"measurement": "Thrombin Above Baseline (nM)", "setting": "[1]; [3]", "result": "++ (11-20 nM (1) or 30-59 nM (2) (++))"}, {"measurement": "Thrombin Above Baseline (nM)", "setting": "[1]; [4]", "result": "++ (11-20 nM (1) or 30-59 nM (2) (++))"}]}, {"substance": "PRIRTVGPGSRSASGKSTCLASYCWLFWTGIA", "values": [{"measurement": "Vmax", "setting": "FIXa", "result": "(++++) ((++++)>3)"}, {"measurement": "Thrombin Above Baseline (nM)", "setting": "[1]; [2]", "result": "+ (1-10 nM (1) or 1-29 nM (2) (+))"}, {"measurement": "Thrombin Above Baseline (nM)", "setting": "[1]; [3]", "result": "++ (11-20 nM (1) or 30-59 nM (2) (++))"}, {"measurement": "Thrombin Above Baseline (nM)", "setting": "[1]; [4]", "result": "+++ (21-30 nM (1) or 60-90 nM (2) (+++))"}, {"measurement": "Thrombin Above Baseline (nM)", "setting": "[1]; [5]", "result": "+ (1-10 nM (1) or 1-29 nM (2) (+))"}, {"measurement": "Thrombin Above Baseline (nM)", "setting": "[1]; [6]", "result": "+++ (21-30 nM (1) or 60-90 nM (2) (+++))"}, {"measurement": "Thrombin Above Baseline (nM)", "setting": "[1]; [7]", "result": "++++ (>30 nM (1) or >90 nM (2) (++++))"}, {"measurement": "Thrombin Above Baseline (nM)", "setting": "[1]; [8]", "result": "++++ (>30 nM (1) or >90 nM (2) (++++))"}]}, {"substance": "PRIRTVGPSSRSASGKLTCLASYCWLFWTGIA", "values": [{"measurement": "Vmax", "setting": "FIXa", "result": "(++++) ((++++)>3)"}, {"measurement": "Thrombin Above Baseline (nM)", "setting": "[1]; [2]", "result": "+ (1-10 nM (1) or 1-29 nM (2) (+))"}, {"measurement": "Thrombin Above Baseline (nM)", "setting": "[1]; [3]", "result": "++ (11-20 nM (1) or 30-59 nM (2) (++))"}, {"measurement": "Thrombin Above Baseline (nM)", "setting": "[1]; [4]", "result": "++ (11-20 nM (1) or 30-59 nM (2) (++))"}]}, {"substance": "PRIRTVGSGSRSASGKLTCLASYCWLFWTGIA", "values": [{"measurement": "Vmax", "setting": "FIXa", "result": "(++++) ((++++)>3)"}, {"measurement": "Thrombin Above Baseline (nM)", "setting": "[1]; [2]", "result": "+ (1-10 nM (1) or 1-29 nM (2) (+))"}, {"measurement": "Thrombin Above Baseline (nM)", "setting": "[1]; [3]", "result": "+ (1-10 nM (1) or 1-29 nM (2) (+))"}, {"measurement": "Thrombin Above Baseline (nM)", "setting": "[1]; [4]", "result": "+ (1-10 nM (1) or 1-29 nM (2) (+))"}]}, {"substance": "PRIRTVSPGSRSASGKLTCLASYCWLFWTGIA", "values": [{"measurement": "Vmax", "setting": "FIXa", "result": "(++++) ((++++)>3)"}, {"measurement": "Thrombin Above Baseline (nM)", "setting": "[1]; [2]", "result": "++ (11-20 nM (1) or 30-59 nM (2) (++))"}, {"measurement": "Thrombin Above Baseline (nM)", "setting": "[1]; [3]", "result": "+++ (21-30 nM (1) or 60-90 nM (2) (+++))"}, {"measurement": "Thrombin Above Baseline (nM)", "setting": "[1]; [4]", "result": "++++ (>30 nM (1) or >90 nM (2) (++++))"}]}, {"substance": "PRIRTVSPGSRSASGKSTCLASYCWLFWTGIA", "values": [{"measurement": "Vmax", "setting": "FIXa", "result": "(++++) ((++++)>3)"}, {"measurement": "Thrombin Above Baseline (nM)", "setting": "[1]; [5]", "result": "++ (11-20 nM (1) or 30-59 nM (2) (++))"}, {"measurement": "Thrombin Above Baseline (nM)", "setting": "[1]; [6]", "result": "+++ (21-30 nM (1) or 60-90 nM (2) (+++))"}, {"measurement": "Thrombin Above Baseline (nM)", "setting": "[1]; [7]", "result": "++++ (>30 nM (1) or >90 nM (2) (++++))"}, {"measurement": "Thrombin Above Baseline (nM)", "setting": "[1]; [8]", "result": "++++ (>30 nM (1) or >90 nM (2) (++++))"}]}, {"substance": "PRIrTVGPGSrSASGKLTCLASYCWLFWTGIA (PRI[dR]TVGPGS[dR]SASGKLTCLASYCWLFWTGIA; not fully specified; printed as PRIrTVGPGSrSASGKLTCLASYCWLFWTGIA; cysteine pairing not given here)", "values": [{"measurement": "Thrombin Above Baseline (nM)", "setting": "[1]; HRF FVIII-deficient plasma (1), 2.5 μM", "result": "++ (11-20 nM (1) or 30-59 nM (2) (++))"}, {"measurement": "Thrombin Above Baseline (nM)", "setting": "[1]; HRF FVIII-deficient plasma (1), 2.5 μM, listed as PRIRTVGPGSRSASGKLTCLASYCWLFWTGIA", "result": "+ (1-10 nM (1) or 1-29 nM (2) (+))"}, {"measurement": "Thrombin Above Baseline (nM)", "setting": "[1]; HRF FVIII-deficient plasma (1), 5 μM", "result": "+++ (21-30 nM (1) or 60-90 nM (2) (+++))"}, {"measurement": "Thrombin Above Baseline (nM)", "setting": "[1]; HRF FVIII-deficient plasma (1), 5 μM, listed as PRIRTVGPGSRSASGKLTCLASYCWLFWTGIA", "result": "++ (11-20 nM (1) or 30-59 nM (2) (++))"}, {"measurement": "Thrombin Above Baseline (nM)", "setting": "[1]; HRF FVIII-deficient plasma (1), 10 μM", "result": "+++ (21-30 nM (1) or 60-90 nM (2) (+++))"}, {"measurement": "Thrombin Above Baseline (nM)", "setting": "[1]; HRF FVIII-deficient plasma (1), 20 μM", "result": "+++ (21-30 nM (1) or 60-90 nM (2) (+++))"}, {"measurement": "Thrombin Above Baseline (nM)", "setting": "[1]; [2]", "result": "++ (11-20 nM (1) or 30-59 nM (2) (++))"}, {"measurement": "Thrombin Above Baseline (nM)", "setting": "[1]; [3]", "result": "+++ (21-30 nM (1) or 60-90 nM (2) (+++))"}, {"measurement": "Thrombin Above Baseline (nM)", "setting": "[1]; [4]", "result": "+++ (21-30 nM (1) or 60-90 nM (2) (+++))"}]}, {"substance": "PWRRFWAWNPRSLALSTWFGRGCD [Compound 8, reference compound]", "values": [{"measurement": "TGA activity in the presence of FVIII", "setting": "[1]; 0.1 U/mL FVIII, compound 7 100-6.3 uM, compounds 8 and 9 50-3.1 uM", "result": "competes with FVIII"}]}]}
